Entries after “also recorded” stand apart in the source; their conditions may differ.
Assays:
[1] = target: MRP2 (Homo sapiens, UniProt Q92887); settings: efflux transporter; cited from earlier work
[2] = Phase-1 drug-drug interaction study, plasma PK in healthy volunteers
Procedure: A drug-drug interaction study (DDI) study is a study designed to investigate whether a drug alters the pharmacokinetics of another drug or drugs or their metabolites.
Compound (III) Subjects received 800 mg of Compound (III) once daily from Days 1-3, Days 11-13, and Days 21-23. PK blood samples for determination of Compound (III) and metabolite concentrations were collected in reference to the Day 3, Day 13, and Day 23 doses.
Simeprevir—Subjects received 150 mg of Simeprevir (SMV) once daily from Days 4-23. PK blood samples for determination of SMV concentrations were collected in reference to the Day 10, Day 13, Day 20, and Day 23 doses.
Odalasvir—Subjects received a loading dose of 150 mg on Day 14, and 50 mg of Odalasvir once daily from Days 15-23. PK blood samples for determination of Odalasvir concentrations were collected in reference to the Day 20 and Day 23 doses.
Compound (III)—Subjects received 800 mg of Compound (III) once daily from Days 1-3, Days 11-13 and Days 21-23. PK blood samples for determination of Compound (III) and metabolite concentrations were collected in reference to the Day 3, Day 13, and Day 23 doses.
Simeprevir—Subjects receive 150 mg of SMV once daily from Days 4-23. PK blood samples for determination of SMV concentrations were collected in reference to the Day 20 and Day 23 doses.
Odalasvir—Subjects receive a loading dose of 150 mg on Day 4, and 50 mg of Odalasvir once daily from Days 5-23. PK blood samples for determination of Odalasvir concentrations were collected in reference to the Day 10, Day 13, Day 20, and Day 23 doses.
A primary objective was to evaluate the effect of multiple oral doses of Odalasvir (alone), Simeprevir (alone), and Odalasvir and Simeprevir on the multiple oral dose PK of Compound (III) (and certain metabolites thereof, such as the major metabolites in systemic circulation) in healthy volunteers. Other objectives were to evaluate the safety and tolerability of multiple oral doses of Compound (III) when administered alone and in combination with single and multiple oral doses of Odalasvir and/or Simeprevir in healthy volunteers; to determine the potential effect of Compound of Compound (III) and/or Odalasvir on the steady-state PK of Simeprevir in healthy volunteers; to determine the potential effect of Compound of Compound (III) and/or Simeprevir on the steady state PK of Odalasvir in healthy volunteers.
Various other PK parameters were estimated including: […], t1/2, Tmax, Tlast, CL/F, Vz/F, and λz.
Odalasvir: 150 mg loading dose; 50 mg for the remainder of the study period.

[3] = target: MRP2/3 (Homo sapiens, UniProt O15438); settings: efflux transporter; cited from earlier work
[4] = Phase 2a open-label combination study, pharmacokinetics; format: in vivo, human
Procedure: A randomized, Phase 2a, open-label study was carried out to evaluate the safety, pharmacokinetics and efficacy of the combination of Compound (III), Odalasvir and Simeprevir in Genotype 1 treatment-naïve subjects with chronic hepatitis C. Other treatment-naïve subjects included Genotype 2, 3, 4, 5 and 6. The aim of the study was to determine the efficacy, pharmacokinetics (PK), and safety of Compound (III)+Odalasvir±SMV in HCV-infected subjects. […] Efficacy, PK and safety evaluations were conducted during and through 24 weeks post dosing. Up to 15 cohorts were enrolled; data was generated from cohorts that have completed dosing.

[5] = target: BSEP (Homo sapiens, UniProt O95342); settings: efflux transporter; cited from earlier work
[6] = tested on: CYP; assay: CYP inhibition
[7] = PK of single agents versus fixed dose combinations, single dose in healthy volunteers; format: in vivo, human; settings: for t1/2term: mean ± SD
Procedure: SMV (100 mg), ODV (50 mg), and Compound (III) (800 mg) were administered as three different formulations or together as single doses in vivo to healthy volunteers. The arms of the study included: • Arm 1 (Reference Arm): Single oral doses of single agents, one SMV 100-mg capsule, one ODV 50-mg tablet as granule layered solid dispersion with copovidone and poloxamers, and two Compound (III) 400-mg tablets, administered together. • Arm 2: Single oral dose of fixed dose combination (FDC02): SMV 100 mg+ODV 50 mg as a spray dried solid dispersion with HPMC-AS L in a ratio ODV/HPMC-AS L 1/1 w/w+Compound (III) 800 mg • Arm 3: Single oral dose of fixed dose combination (FDC04): SMV 100 mg+ODV 50 mg as a spray dried solid dispersion with HPMC-AS L in a ratio ODV/HPMC-AS L 1/3 w/w+Compound (III) 800 mg • Arm 4: Single oral dose of fixed dose combination (FDC01): SMV 100 mg+ODV 50 mg as a spray dried solid dispersion with copovidone and poloxamers+Compound (III) 800 mg
PK parameters, including Cmax, tmax, AUClast, and AUC∞ were measured for Compound (III), ODV, SMV, and metabolites Compound A-I and Compound A-3 for each Arm of the study. Arms that included fixed dose combinations (FDC) (Arm 2, Arm 3, and Arm 4) were then compared to a single oral dose (Arm 1, the reference Arm). Table 9, Table 10, Table 11, Table 12 and Table 13 display relevant PK parameters and FIG. 9, FIG. 10, FIG. 11, FIG. 12, and FIG. 13 depict the plasma concentration over time of SMV, ODV, Compound A-1, and Compound A-3 for each Arm of the study.

Sequence of BSEP (O95342 whole entry): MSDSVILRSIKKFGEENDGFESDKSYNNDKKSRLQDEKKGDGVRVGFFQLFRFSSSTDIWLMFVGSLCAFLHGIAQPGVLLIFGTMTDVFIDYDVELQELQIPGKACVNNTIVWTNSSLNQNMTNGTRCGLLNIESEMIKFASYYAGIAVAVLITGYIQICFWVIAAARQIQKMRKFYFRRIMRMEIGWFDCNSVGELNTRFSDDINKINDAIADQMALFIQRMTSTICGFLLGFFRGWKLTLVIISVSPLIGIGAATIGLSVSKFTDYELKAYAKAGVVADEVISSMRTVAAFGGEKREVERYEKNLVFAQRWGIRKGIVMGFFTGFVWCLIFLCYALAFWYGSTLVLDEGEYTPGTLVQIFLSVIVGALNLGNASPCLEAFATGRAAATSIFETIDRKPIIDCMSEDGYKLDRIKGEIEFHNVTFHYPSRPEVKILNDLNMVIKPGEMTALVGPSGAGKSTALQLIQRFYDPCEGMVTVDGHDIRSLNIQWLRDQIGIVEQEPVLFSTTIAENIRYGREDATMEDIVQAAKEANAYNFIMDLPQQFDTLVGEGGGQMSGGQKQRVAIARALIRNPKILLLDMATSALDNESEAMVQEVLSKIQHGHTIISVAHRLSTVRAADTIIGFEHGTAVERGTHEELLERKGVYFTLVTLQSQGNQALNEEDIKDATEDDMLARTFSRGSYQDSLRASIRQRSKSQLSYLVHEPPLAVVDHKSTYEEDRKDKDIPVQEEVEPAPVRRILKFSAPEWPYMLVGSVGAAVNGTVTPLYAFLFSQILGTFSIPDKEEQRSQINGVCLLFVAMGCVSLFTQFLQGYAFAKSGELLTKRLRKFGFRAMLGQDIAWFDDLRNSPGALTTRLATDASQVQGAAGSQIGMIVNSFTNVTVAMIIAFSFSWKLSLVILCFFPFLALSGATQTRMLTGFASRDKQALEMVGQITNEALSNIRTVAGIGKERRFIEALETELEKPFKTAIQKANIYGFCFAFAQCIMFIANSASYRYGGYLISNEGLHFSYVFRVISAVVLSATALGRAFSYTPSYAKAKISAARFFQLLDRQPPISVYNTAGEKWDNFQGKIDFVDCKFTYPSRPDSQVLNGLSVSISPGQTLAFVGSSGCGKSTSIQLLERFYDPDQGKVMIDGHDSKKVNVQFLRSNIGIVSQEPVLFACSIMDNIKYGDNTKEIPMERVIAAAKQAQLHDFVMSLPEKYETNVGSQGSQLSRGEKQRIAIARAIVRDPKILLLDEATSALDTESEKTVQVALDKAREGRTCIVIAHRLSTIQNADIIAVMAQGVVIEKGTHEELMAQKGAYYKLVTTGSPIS
Sequence of MRP2/3 (O15438 whole entry): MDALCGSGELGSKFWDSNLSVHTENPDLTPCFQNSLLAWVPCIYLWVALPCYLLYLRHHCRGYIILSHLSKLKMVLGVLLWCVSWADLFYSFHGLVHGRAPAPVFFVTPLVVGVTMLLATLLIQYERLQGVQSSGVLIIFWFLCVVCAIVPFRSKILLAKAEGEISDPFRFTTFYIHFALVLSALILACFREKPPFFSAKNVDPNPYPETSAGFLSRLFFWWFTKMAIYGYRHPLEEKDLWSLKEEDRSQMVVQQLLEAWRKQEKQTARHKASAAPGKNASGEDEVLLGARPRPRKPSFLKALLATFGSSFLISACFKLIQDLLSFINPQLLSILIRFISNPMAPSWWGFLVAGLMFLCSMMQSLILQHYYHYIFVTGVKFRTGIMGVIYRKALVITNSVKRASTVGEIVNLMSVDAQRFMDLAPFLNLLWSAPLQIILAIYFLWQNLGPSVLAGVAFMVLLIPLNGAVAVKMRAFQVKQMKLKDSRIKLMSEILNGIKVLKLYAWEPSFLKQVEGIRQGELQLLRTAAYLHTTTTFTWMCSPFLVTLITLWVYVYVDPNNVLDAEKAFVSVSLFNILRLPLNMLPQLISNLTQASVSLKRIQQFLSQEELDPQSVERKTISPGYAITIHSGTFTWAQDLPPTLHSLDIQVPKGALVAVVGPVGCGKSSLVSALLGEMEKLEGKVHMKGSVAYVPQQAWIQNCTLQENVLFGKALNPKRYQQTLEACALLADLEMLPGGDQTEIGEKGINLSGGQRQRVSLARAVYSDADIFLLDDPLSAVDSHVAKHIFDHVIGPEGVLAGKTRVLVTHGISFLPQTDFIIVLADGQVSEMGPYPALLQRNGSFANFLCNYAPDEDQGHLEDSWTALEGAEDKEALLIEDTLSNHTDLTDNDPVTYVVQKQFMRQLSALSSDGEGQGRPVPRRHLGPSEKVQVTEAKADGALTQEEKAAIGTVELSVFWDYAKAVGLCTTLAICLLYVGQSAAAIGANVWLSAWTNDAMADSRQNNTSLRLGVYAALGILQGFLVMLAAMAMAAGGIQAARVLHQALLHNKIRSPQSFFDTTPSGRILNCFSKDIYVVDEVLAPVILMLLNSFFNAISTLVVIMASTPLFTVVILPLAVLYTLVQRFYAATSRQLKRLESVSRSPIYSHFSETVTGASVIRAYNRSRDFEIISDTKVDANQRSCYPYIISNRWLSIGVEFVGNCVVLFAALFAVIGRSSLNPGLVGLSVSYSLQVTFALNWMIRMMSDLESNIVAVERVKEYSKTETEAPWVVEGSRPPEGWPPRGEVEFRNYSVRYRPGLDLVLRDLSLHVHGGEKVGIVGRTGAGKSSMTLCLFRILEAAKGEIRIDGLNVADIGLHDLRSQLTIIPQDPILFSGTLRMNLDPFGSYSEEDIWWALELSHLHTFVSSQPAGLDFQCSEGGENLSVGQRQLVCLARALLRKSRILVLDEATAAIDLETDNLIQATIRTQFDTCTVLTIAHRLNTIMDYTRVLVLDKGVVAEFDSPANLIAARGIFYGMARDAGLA
Sequence of MRP2 (Q92887 whole entry): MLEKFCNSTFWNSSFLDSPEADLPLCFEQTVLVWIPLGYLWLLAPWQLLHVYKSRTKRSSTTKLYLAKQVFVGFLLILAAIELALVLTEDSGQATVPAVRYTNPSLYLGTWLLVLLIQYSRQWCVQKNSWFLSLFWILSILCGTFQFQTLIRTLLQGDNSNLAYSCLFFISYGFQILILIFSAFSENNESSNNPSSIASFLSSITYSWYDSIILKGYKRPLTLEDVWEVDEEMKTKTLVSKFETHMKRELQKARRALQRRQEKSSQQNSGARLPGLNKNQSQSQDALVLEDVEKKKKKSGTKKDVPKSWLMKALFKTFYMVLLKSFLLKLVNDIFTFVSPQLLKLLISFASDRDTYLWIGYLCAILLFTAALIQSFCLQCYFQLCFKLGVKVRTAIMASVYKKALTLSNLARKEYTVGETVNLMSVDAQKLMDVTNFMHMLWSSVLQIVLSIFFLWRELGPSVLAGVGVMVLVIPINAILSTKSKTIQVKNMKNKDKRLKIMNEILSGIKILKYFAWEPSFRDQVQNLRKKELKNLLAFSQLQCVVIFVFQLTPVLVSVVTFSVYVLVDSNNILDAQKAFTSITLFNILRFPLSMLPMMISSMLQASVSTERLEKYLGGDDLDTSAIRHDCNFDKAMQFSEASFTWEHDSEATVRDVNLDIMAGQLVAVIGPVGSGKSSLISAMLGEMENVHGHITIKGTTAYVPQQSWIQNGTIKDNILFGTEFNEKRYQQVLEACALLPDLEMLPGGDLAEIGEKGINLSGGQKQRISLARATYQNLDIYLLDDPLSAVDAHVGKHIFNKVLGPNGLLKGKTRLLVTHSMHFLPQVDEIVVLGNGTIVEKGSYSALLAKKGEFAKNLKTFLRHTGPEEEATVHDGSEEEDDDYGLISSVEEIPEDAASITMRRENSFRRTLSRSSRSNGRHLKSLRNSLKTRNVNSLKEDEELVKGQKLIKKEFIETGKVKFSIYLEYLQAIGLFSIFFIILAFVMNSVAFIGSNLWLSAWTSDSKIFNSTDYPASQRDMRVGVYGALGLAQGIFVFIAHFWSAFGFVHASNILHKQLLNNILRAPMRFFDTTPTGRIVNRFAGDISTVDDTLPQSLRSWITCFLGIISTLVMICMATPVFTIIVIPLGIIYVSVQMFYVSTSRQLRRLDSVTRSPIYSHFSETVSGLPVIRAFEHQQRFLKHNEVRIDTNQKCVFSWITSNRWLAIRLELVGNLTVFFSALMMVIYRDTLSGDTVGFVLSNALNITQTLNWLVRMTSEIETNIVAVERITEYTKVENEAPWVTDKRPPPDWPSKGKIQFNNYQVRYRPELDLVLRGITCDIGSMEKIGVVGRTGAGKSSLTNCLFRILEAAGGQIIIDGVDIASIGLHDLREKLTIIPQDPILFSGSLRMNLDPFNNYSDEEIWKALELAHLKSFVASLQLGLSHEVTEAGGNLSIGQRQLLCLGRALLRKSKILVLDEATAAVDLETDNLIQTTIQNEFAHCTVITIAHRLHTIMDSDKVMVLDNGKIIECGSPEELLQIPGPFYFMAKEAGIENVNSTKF

COC(=O)N[C@H](C(=O)N1[C@H](c2nc3cc(-c4cc5ccc4CCc4ccc(c(-c6ccc7[nH]c([C@@H]8C[C@@H]9CCCC[C@@H]9N8C(=O)[C@@H](NC(=O)OC)C(C)C)nc7c6)c4)CC5)ccc3[nH]2)C[C@@H]2CCCC[C@@H]21)C(C)C [ODV, methyl [(2S)-1-[(2S,3aS,7aS)-2-[6-[11-[2-[(2S,3aS,7aS)-1-[(2S)-2-[(methoxycarbonyl)amino]-3-methylbutanoyl]octahydro-1H-indol-2-yl]-1H-benzimidazol-6-yl]tricyclo[8.2.2.2^4,7]hexadeca-1(12),4,6,10,13,15-hexaen-5-yl]-1H-benzimidazol-2-yl]octahydro-1H-indol-1-yl]-3-methyl-1-oxobutan-2-yl]carbamate]
in vitro inhibition of MRP2 [1]: no inhibition
exposure increase caused by SMV ([2]; DDI study results): 1.6 ×
exposure increase, effect of the three Compounds ([2]; DDI study results): 1.5 ×
increase of exposure with the combination of the three drugs ([2]; human in vivo study): 1.5 times
effect of Compound (III) on exposure / bioavailability ([2]; human subjects): no apparent effect; also recorded: does not alter
in vitro inhibition of MRP3 [3]: no inhibition
decrease of exposure on reducing Odalasvir dosing from once a day to every other day ([4]; 50 mg): proportionally
observed exposure in Cohort 1 / group (i) versus anticipated ([4]; Compound (III) 400 mg, ODV 50 mg QD, SMV 100 mg QD): higher than anticipated
in vitro inhibition of BSEP [5]: no inhibition

CC(C)OC(=O)C(C)N[P@](=O)(OC[C@@]1(F)O[C@@H](n2ccc(=O)[nH]c2=O)[C@](C)(O)[C@@H]1O)Oc1ccccc1 (stereo in doubt) [Compound (III)]
IC50 [6]: > 26 µM
exposure increase caused by Odalasvir ([2]; DDI study results): 4 ×
exposure increase caused by SMV ([2]; DDI study results): 3 ×
increase of exposure with the combination of the three drugs ([2]; both, human, in vivo): 7-8 times
bioavailability of Compound (III) when SMV and ODV are co-administered, compared to Compound (III) alone ([2]; human subjects): approximately 8 fold
t1/2term ([7]; Arm 1 (reference): single agents, single oral dose): 36 ± 6 min
t1/2term ([7]; Arm 2: FDC02, single oral dose): 42 ± 12 min
t1/2term ([7]; Arm 3: FDC04, single oral dose): 42 ± 6 min
t1/2term ([7]; Arm 4: FDC01, single oral dose): 36 ± 6 min
Tmax ([7]; human, in vivo, Arm 1 (reference): single agents, single oral dose, median [range]): 120 min
